Assays:
IL-17 [1] = experiment: IL-17 gene expression in RA-patient synovial cells (RT-qPCR); type: cell-based, human; conditions: 2 h
Experimental: Synovial fluid was freshly collected from 20 patients with rheumatoid arthritis (RA) by arthrocentesis. At two hours after treatment or not with 2,4-D, RA-patient synovial cells were directly lysed using TRIzol reagent (Invitrogen, USA) followed by RNA extraction according to the manufacturer's protocol. Finally, RNA was dissolved in 10 μL DEPC-treated water, quantified on a NanoDrop 2000 spectrophotometer (Thermo Scientific Inc., USA), and reverse-transcribed using the Super Script III First-Strand Synthesis System for RT-PCR kit (Thermo Scientific, USA) according to the manufacturer's protocol. PCR was performed in duplicate using SYBR Green qPCR master mix (Takara Biomedical Technology Co., Ltd, Dalian, China) on an ABI 7500 Real-Time PCR System (Thermo, USA). The cycling program was as follows: denaturation at 95° C. for 15 s, 40 cycles of 95° C. for 15 s and extension at 60° C. for 60 s, followed by melt curve generation. The ΔΔCT method was used to quantify relative mRNA levels as described in Example 1 above. The primer sequences specific for human IL-17 genes (hu-IL-17 Forward: 5′-[…]-3′; hu-IL-17 Reverse: 5′-GGCACTTTGCCTCCCAGAT-3′) (SEQ ID NOs 8 and 9, respectively) and IL-23 (see Example 1, above) were used.

IL-17 [2] = experiment: IL-17 protein in culture supernatant of RA-patient synovial cells; type: cell-based, human; conditions: increasing concentrations
[3] = system: Balb/c to C57BL/6 skin graft; experiment: Balb/c to C57BL/6 full-thickness skin graft survival; type: in vivo, mouse; conditions: oral, bid
Experimental: Skin transplantation. Murine full-thickness allo-skin transplantation to study graft rejection was conducted according to a previously well-described protocol (Cheng et al, 2017). All procedures were conducted in accordance with the Guide for the Care and Use of Laboratory Animals of the National Institute of Health (NIH) and were approved by the animal ethics committee of Guangzhou University of Chinese Medicine.
Briefly, donor mice (Balb/c) were anesthetized with isoflurane (induction vaporizer at 4%, maintenance at 1-2% through the mouse cone). The toe pinch withdrawal reflex was used to monitor the depth of anesthesia. The back of the animal was shaved with an electric razor and disinfected with 10% povidone iodine. Using sterile scissors, gloves, and aseptic technique, donor back skin was harvested from the hip to the neck with blunt dissection at the level of the areolar connective tissue. After harvesting the skin graft, the animal was euthanized by cervical dislocation. Under a microscope, the connective tissue, fat tissue, and panniculus carnosus were separated from the back skin using fine tenotomy scissors. Using sterile technique, 15-mm×15-mm grafts were cut out from the back skin for a 10-mm×10-mm to 15-mm×15-mm graft bed (10 grafts were obtained from one donor mouse). The grafts were stored on gauze soaked with sterile phosphate-buffered saline (PBS) in a petri dish on ice.
The recipient mice (C57BL/6) were anesthetized with isoflurane. Buprenorphine (0.02 mg/kg) was administrated for postoperative pain relief. The side of the back of the animal where the graft will be inserted was shaved and disinfected with 10% povidone iodine. A 10-mm×10-mm to 15-mm×15-mm square of skin was intersected using scissors. The defect size was slightly larger (10%) than the graft. The graft was positioned on the graft bed avoiding folds along the edges. Eight sutures were placed on the corners and on the middle of each edge. […] When the graft was considered as successful, it was then monitored daily for signs of rejection. […]

Solubility in water = type: physicochemical

For `COc1cc(O)c(OC)c(O)c1C(=O)/C=C/c1ccccc1` [2,4-D, 2′,4′-dihydroxy-3′,6′-dimethoxychalcone], the “decrease of IL-17 expression” value (IL-17 [1]; 1 μg/ml) was 23 fold, the “inhibition of IL-17 expression” value (IL-17 [1]; 5 μg/ml) was 60 fold and the “concentration of IL-17 protein in the culture supernatant” value (IL-17 [2]) was “significantly inhibited”. The median graft survival ([3]; 2 mg/kg) was 15 days, the median graft survival ([3]; 10 mg/kg) was 19 days and the median graft survival ([3]; 50 mg/kg) was 24 days. The solubility in water (Solubility in water) was “Low solubility”.

From patent US20240335395A1, “COMPOSITIONS AND METHODS FOR PREVENTING AND/OR TREATING DISEASE ASSOCIATED WITH IL-23 EXPRESSION” (ALLSPIM, priority 2021, published 2024)
